Measured values reported in publication PMC12040169 (PLOS Biology, 2025).

assay: in vitro; conditions: human, hela cells, % viability

In order of rising viability at 28.5 h, 10 µM:
1. CCNS(=O)(=O)c1ccc2c(c1)N(Cc1nc(C)c(C)o1)CC2 [CBK305189]  51.5%
2. CCN(CC)C(=O)c1cccc(NS(=O)(=O)c2cccc3cccnc23)c1 [CBK038999]  66.5%
3. CCC(C)(NC(=O)c1ccn(-c2cc(C)ccc2OC)n1)C(=O)OC (stereo not drawn) [CBK305282]  78.7%
4. COCCn1c(SCCC(=O)O)nc2c1c(=O)[nH]c(=O)n2C [CBK139751]  82%
5. CN(C)c1ccc(/C=N/NC(=O)CCn2c3ccccc3c3cc(I)ccc32)cc1 [CBK262902]  84.5%
6. CC(C)c1nc(CC(=O)NCCS(=O)(=O)N2CCc3ccccc32)cs1 [CBK305630]  84.5%
7. Cc1cc(Cl)ccc1CNC(=O)/C=C/c1ccc(C(C)C)cc1 [CBK149615]  85.2%
8. CCN(CC(=O)Nc1c(F)cccc1F)S(=O)(=O)c1cccc(C#N)c1 [CBK306197]  85.4%
9. Cc1ccc(-n2ncc3c2NC(=O)N2CCN=C32)cc1 [CBK284345]  85.5%
10. CC(C)C1(C)N=C(c2nc3ccccc3cc2C(=O)O)NC1=O (stereo not drawn) [CBK287057]  86.1%
11. Cc1ccc(C(=O)C(NC(=O)c2ccco2)Nc2cccc3ccccc23)cc1 (stereo not drawn) [CBK263856]  86.3%
12. Cc1cccc(-c2ncc(C(=O)Nc3nccs3)cc2-c2ccco2)c1 [CBK037427]  86.3%
13. Cc1cc(C)c(S(=O)(=O)NC(CC(=O)O)c2ccccc2)cc1C (stereo not drawn) [CBK267081]  86.8%
14. Cc1nc(O)cc(C2CCCN(C(=O)c3csc4c3CCCC4)C2)n1 (stereo not drawn) [CBK306696]  87.3%
15. CN1C(=O)c2ccccc2C(=O)[C@@]2(C)CN(C(=O)C3CC3)C[C@@H]12 [CBK284569]  87.3%
16. Cn1cc(-c2ncc(OCCc3cccs3)nc2N)cn1 [CBK145167]  87.8%
17. CC1CN(c2cc(CNc3ncccc3Cl)ccn2)CCO1 (stereo not drawn) [CBK306456]  88.3%
18. Cc1nc2cccnc2n1C1CCN(C(=O)NC2CCCCC2)CC1 [CBK283637]  88.5%
19. CCOc1cc(/C=c2/sc3nc(=O)c(Cc4ccccc4)nn3c2=O)ccc1OC(C)=O [CBK077455]  89.2%
20. CN(C)C(=O)CN1N=C(C(C)(C)C)Cn2c(cc3sccc32)C1=O [CBK284116]  89.5%
21. Cc1cc(C)cc(Oc2coc3c(CN4CCOCC4)c(O)ccc3c2=O)c1 [CBK263908]  89.7%
22. NS(=O)(=O)c1ccc(CCNC2CC(=O)N(Cc3ccccc3)C2=O)cc1 (stereo not drawn) [CBK267439]  90.5%
23. O=C(Cn1c[n+]([N-][N+](=O)[O-])cn1)Nc1ncc(Br)cc1Br [CBK262342]  90.9%
24. O=C(O)CCC(=O)N1CCCC2(CCN(C(=O)Cc3c[nH]c4ccccc34)C2)C1 (stereo not drawn) [CBK131572]  91.2%
25. CC(NC(=O)c1cccc(Oc2ccccc2)c1)c1ccncc1 (stereo not drawn) [CBK270327]  91.3%
26. CCCC1(OC(=O)Nc2ccc(Cl)cc2)CCCCC1 [CBK026295]  91.4%
27. O=C(O)c1ccc(COc2cccc(/C=N\O)c2)cc1 [CBK288501]  91.9%
28. CCN(CC)C(=O)[C@@H]1CCCN1c1nc(O)cc(C(F)(F)F)n1 [CBK002867]  92%
29. Cc1n[nH]c(C)c1C12CC3CC(CC(CC(=O)O)(C3)C1)C2 [CBK288241]  92.2%
30. O=S(=O)(Nc1nccnc1-c1ccc2c(c1)OCO2)c1ccc(Cl)cc1 [CBK050952]  92.4%
31. CCCN1C(C)=NS(=O)(=O)c2cc(C(=O)O)ccc21 [CBK287251]  92.4%
32. CCC1(CC)OC(N[C@@H](CO)c2ccccc2)=NC1=O [CBK126756]  92.8%
33. Cc1cnc2c(Cl)c(C(=O)N3CCN(C)C4(CCNCC4)C3)nn2c1 [CBK306513]  92.9%
34. Cc1c(C(=O)NC(=S)Nc2ccc(O)c(-c3nc4ccccc4s3)c2)oc2ccccc12 [CBK264223]  93.2%
35. O=C(O)c1cccc(S(=O)(=O)N(CCO)CCO)c1 [CBK263221]  93.2%
36. Cc1cc(OCC(=O)N2CCCc3c(cnn3C)C2)ccc1Cl [CBK285277]  93.3%
37. Cn1cc(CCCNC(=O)c2cccc(CN3CCCCCC3)c2)cn1 [CBK306906]  93.7%
38. CCNC(=O)Nc1cc2cccnc2nc1-c1cccc(C(F)(F)F)c1 [CBK070645]  94.1%
39. O=C(Nc1ccc2ncccc2c1)c1cccnc1 [CBK159820]  94.1%
40. CC(CNC(=O)C1CCCC1)N1CCc2ccccc2C1 (stereo not drawn) [CBK304555]  94.2%
41. COc1cccc(C(=O)N2CC=C[C@H]2C(=O)NC2CC2)c1 [CBK284278]  94.4%
42. CCCC/C=C/c1nccnc1NCc1ccc(C(F)(F)F)cc1 [CBK038077]  94.4%
43. O=C(O)CSc1n[nH]c(=O)[nH]c1=O [CBK217819]  94.8%
44. COc1ccc(C)cc1C(O)CN1CCOC(c2ccc(F)cc2)C1 (stereo not drawn) [CBK298264]  95.5%
45. CC1CCN(Cc2ccc(-c3nnn(CC(=O)NCc4ccc(Cl)cc4Cl)n3)cc2)CC1 [CBK144180C]  96.5%
46. Cc1cc(C)nc(Nc2n[nH]c(-c3cccnc3)n2)n1 [CBK267120]  98%
47. COc1ccc(Oc2nccnc2N2CCN(CC3CCCCC3)CC2)cc1OC [CBK083064T]  98.6%
48. O=C(Nc1nnc(-c2ccc3c(c2)OCCO3)o1)c1cccc(F)c1 [CBK287402]  101%
49. O=C(Nc1cccc(-c2noc(Cc3ccccc3)n2)c1)c1cccs1 [CBK270244]  101%
50. CCOc1ccc(S(=O)(=O)N(C)CC(=O)N2CCN(C)CC2)cc1Cl [CBK269865]  101%
51. CC1CCC(C(N)=O)CN1C(=O)c1csc(COc2ccc(Cl)cc2)n1 (stereo not drawn) [CBK304948]  102%
52. CC(C)CNC(=O)c1cc(C2CN(Cc3c[nH]nc3C(C)(C)C)CCO2)nc2ccccc12 (stereo not drawn) [CBK285925]  104%
53. O=C(NC1CCCC1)c1cc(=O)n(Cc2ccc(Cl)cc2)c2ccccc12 [CBK294464]  104%
54. Cc1nn(Cc2ccccc2)c(C)c1NC(=O)CSc1nc2c(c(C(F)(F)F)n1)CCc1ccccc1-2 [CBK266112]  105%
55. N#Cc1c(NC(=O)c2ccc(C(=O)O)cc2C(=O)O)sc2c1CCCC2 [CBK262722]  105%
56. COc1ccc(-c2nc(NC(=O)Cc3ccccc3OC(F)(F)F)cnc2-c2cccc(C)c2)cc1 [CBK037551]  107%
57. N[C@H]1C[C@H](c2nnc(Cn3ncc(N4CCCC4)cc3=O)n2C2CC2)C1 [CBK307039]  107%
58. Nc1nc(=O)n([C@@H]2O[C@H](CO)[C@H](O)C2O)cc1I (stereo partly drawn) [CBK201306]  107%
59. CCNc1cc2ccccc2c(-c2cc(C(C)C)ccc2OC)n1 [CBK073777]  110%
60. O=S(=O)(c1ccccc1)N1CCCC1c1cccs1 (stereo not drawn) [CBK057002]  110%
61. CC(C)Oc1cc(NC(=O)CS(=O)(=O)CC(=O)N(C)C)c(Cl)cc1Cl [CBK018112]  113%
62. N#C/C(=C/c1ccc(-c2ccc(S(N)(=O)=O)cc2)o1)C(=O)Nc1ccccc1 [CBK263123]  119%
63. CCCC(=O)Nc1ccc(C(=O)Nc2ccccc2C(=O)O)cc1 [CBK265111]  121%
